Experimental data reported in patent publication US20050260555A1, “Chemosensitivity measurement using caspase activity” (Evotec Analytical Systems GmbH, priority 1999, published 2005).
*1 amine or outer side, *2 acyl side, *3 side chain or, on linkers, in order; H or OH if unused. Where a SMILES comes first, the peptide text is derived from it. Bridges are numbered along the chain shown (N, C = ends). Roman numbers before positions name the chains, in order. [ ]: non-standard residue; d: D form. Actinocin(9to1) = Cc1c2oc3c(C)ccc(C(=O)[*:1])c3nc-2c(C(=O)[*:2])c(N)c1=O; NMeV = CN[C@H](C(=O)O)C(C)C; Sar = CNCC(=O)O

Columns and labels:
Format in all cases: cell-based
HL60 cells = assay: Chemosensitivity of HL60 cells, accumulated caspase activity; conditions: promyeloic HL60 cells
Method: (§1) This object is achieved by a method for determining the chemosensitivity of cells towards at least one substance by measuring the apoptosis induced by said at least one substance, wherein the apoptosis is determined from the accumulated caspase activity of a sample comprising cells and a medium by adding said at least one substance to the sample followed by incubation, and measuring the accumulated caspase activity in the sample upon disruption of the cells without previously separating off the cells. In particular, the method according to the invention permits the use of substrates which are hardly cell-permeating or not cell-permeating at all.
It is essential that the accumulated caspase activity is measured. In this approach, cells, e.g., tumor cells of a patient, are incubated with at least one substance (e.g., cytostatic agent) for an extended period of time so that all effective pharmaceuticals, even the slowly acting, have had enough time to induce apoptosis. Subsequently, for example, a substrate present in a lysis buffer is added, and after the cell lysis has been effected, the total caspase activity formed, i.e., the accumulated activity, of the cellular suspension is measured. […] The conventionally determined (with a washing step) caspase activity increases at the same rate as the accumulated caspase activity, but decreases when the secondary necrosis begins (see FIG. 1). Thus, the principle of measuring the accumulated caspase activity permits to detect the effect of substances on the cells by a single caspase activity measurement. This test has a low need of cells and can be performed as a routine test by laboratory or technical assistants within a short time. Due to the easy automation, the personnel expenditure for performing the test is low. Since the test can be performed on ELISA reading devices, which are available everywhere, no investment in equipment is necessary. Miniaturization is possible to further reduce the consumption of materials. It could be shown that cells can be kept in culture for some days in less than 10 μl of medium. […]
The caspase activity of 250 000 Jurkat cells in 100 μl of medium was determined after different incubation times with 1 μg/ml actinomycin D both conventionally and according to the method of accumulated caspase activity according to the invention. […] The accumulated caspase activity was determined by mixing 100 μl of the cells incubated with actinomycin D, directly in suspension, with 100 μl of 2× lysis buffer. […] At room temperature, the release of fluorescent aminocoumarin by caspase was monitored every 5 min over a period of 2 h. From the linear increase of the signal, the slope was calculated as a measure of caspase activity. […]

U937 cells = assay: Chemosensitivity of U937 cells, accumulated caspase activity; conditions: cell line U937, FIG. 3; for effectiveness (apoptosis induction) as concentration increases: average from three independent experiments
Method: as §1
(§2) It is essential that the accumulated caspase activity is measured. In this approach, cells, e.g., tumor cells of a patient, are incubated with at least one substance (e.g., cytostatic agent) for an extended period of time so that all effective pharmaceuticals, even the slowly acting, have had enough time to induce apoptosis. Subsequently, for example, a substrate present in a lysis buffer is added, and after the cell lysis has been effected, the total caspase activity formed, i.e., the accumulated activity, of the cellular suspension is measured. […] The conventionally determined (with a washing step) caspase activity increases at the same rate as the accumulated caspase activity, but decreases when the secondary necrosis begins (see FIG. 1). Thus, the principle of measuring the accumulated caspase activity permits to detect the effect of substances on the cells by a single caspase activity measurement. This test has a low need of cells and can be performed as a routine test by laboratory or technical assistants within a short time. Due to the easy automation, the personnel expenditure for performing the test is low. Since the test can be performed on ELISA reading devices, which are available everywhere, no investment in equipment is necessary. Miniaturization is possible to further reduce the consumption of materials. It could be shown that cells can be kept in culture for some days in less than 10 μl of medium. The reduction of the number of cells per sample compartment […] per test enables highly parallel analyses of samples with extremely few cells from patients, e.g., from fine needle biopsies. The low need of cells also permits the high throughput screening (HTS) of unknown substances for anti-tumor activity.
The caspase activity of 250 000 Jurkat cells in 100 μl of medium was determined after different incubation times with 1 μg/ml actinomycin D both conventionally and according to the method of accumulated caspase activity according to the invention. Thus, 100 μl of Jurkat cells (2.5×10^6/ml) was incubated in the presence of actinomycin D at 5% CO2 and 37° C. in RPMI medium with 10% FCS and Pen/Strep. After the incubation, the cells were centrifuged by a conventional method and washed with PBS. The pellet was resuspended in 200 μl of lysis buffer, incubated on ice for 10 min and frozen at −20° C. The accumulated caspase activity was determined by mixing 100 μl of the cells incubated with actinomycin D, directly in suspension, with 100 μl of 2× lysis buffer. The lysate was also frozen at −20° C. All lysates were simultaneously thawed, and aminocoumarin-DEVD was added. At room temperature, the release of fluorescent aminocoumarin by caspase was monitored every 5 min over a period of 2 h. From the linear increase of the signal, the slope was calculated as a measure of caspase activity. The spontaneous caspase activities of the Jurkat cells in the absence of actinomycin D, not shown in the Figure, increase with time, but remain lower than 4 min^−1.
The chemosensitivities of U937 and HL60 cells towards the cytostatic agents indicated in FIGS. 3 and 4 were tested in the stated concentration ranges.
The effect of four cytostatic agents on the cell line U937 was tested. Each data point represents the average from three independent experiments.

[1] = system: isolated cells from the peripheral blood (PBMNC) of healthy volunteers; assay: Chemosensitivity of PBMNC, caspase activity; conditions: PBMNC of healthy subjects; for concentration by which caspase activity can be induced: average from three independent experiments
Method: as §1, §2
For establishing the test for peripheral blood or bone marrow, isolated cells from the peripheral blood (PBMNC) of healthy volunteers were tested first, taking care that acute infections, as frequently encountered in the fall/winter season, could be excluded. FIGS. 5 and 6 illustrate the results of the studies with two cytostatic agents.
As compared to tested leukemia cell lines, the PBMNCs respond later to daunorubicin.

SMILES | maximum inducible caspase activity reached at the highest concentration measured (HL60 cells) | maximum inducible caspase activity (U937 cells) | effectiveness (apoptosis induction) as concentration increases (U937 cells) | plateau (unchanging maximum caspase activity) [1] | concentration by which caspase activity can be induced [1] [ng/mL] | induced caspase activities (comparison between agents) (HL60 cells) | response compared to tested leukemia cell lines [1] | concentration at maximum in caspase activity (HL60 cells; apoptosis signal decreases at higher concentrations)
Nc1ccn([C@@H]2O[C@H](CO)[C@@H](O)[C@@H]2O)c(=O)n1 [Ara-C, cytosine arabinoside (Ara-C)] | appears not yet to have reached the maximum caspase activity | relatively low | also increases | not reached for any of the tested PBMNCs | > 200 |  |  | 
Cc1c2oc3c(C)ccc(C(=O)N[C@@H]4C(=O)N[C@H](C(C)C)C(=O)N5CCC[C@H]5C(=O)N(C)CC(=O)N(C)[C@@H](C(C)C)C(=O)O[C@@H]4C)c3nc-2c(C(=O)N[C@@H]2C(=O)N[C@H](C(C)C)C(=O)N3CCC[C@H]3C(=O)N(C)CC(=O)N(C)[C@@H](C(C)C)C(=O)O[C@@H]2C)c(N)c1=O [actinomycin D] (I: T[dV]P[Sar][NMeV] / II: T[dV]P[Sar][NMeV]; ester I:1-I:C, II:1-II:C; linker I:N-II:N via Actinocin(9to1)) |  | highest | also increases |  |  | higher caspase activities than Ara-C and prednisolone |  | 
COc1cccc2c1C(=O)c1c(O)c3c(c(O)c1C2=O)C[C@@](O)(C(C)=O)C[C@@H]3O[C@H]1C[C@H](N)[C@H](O)[C@H](C)O1 [daunorubicin] |  | significantly higher | also increases | not reached for the subjects NP1 and NP5 to NP8, and only roughly so for the subjects NP2 to NP4 | > 50 | higher caspase activities than Ara-C and prednisolone | respond later | 
C[C@]12C=CC(=O)C=C1CC[C@@H]1[C@@H]2[C@@H](O)C[C@@]2(C)[C@H]1CC[C@]2(O)C(=O)CO [prednisolone] |  |  | no or but a slight apoptosis induction |  |  |  |  | about 700 ng/ml
